The NIST ThermoML archive (doi:10.1021/je800463k)

Assay: mn = molality of the nth substance listed, in mol/kg
Conditions: 101 kPa, Liquid; for electrical conductivity: Frequency=0.001 MHz, Alternating current cell with electrodes; for speed of sound: Frequency=2 MHz; for mass density: Pycnometric method

O=[N+]([O-])[O-].O=[N+]([O-])[O-].[Mg+2] [magnesium nitrate] + CO
Conditions	electrical conductivity [S/m]	mass density [kg/m3]	speed of sound [m/s]	viscosity [mPa·s]
288.15 K, m1 = 0.0082	–	–	1141.9	0.6479
288.15 K, m1 = 0.0545	–	–	1145.7	0.69
288.15 K, m1 = 0.0667	0.393	–	1147.2	0.7149
288.15 K, m1 = 0.1047	0.5164	–	1152.3	0.743
288.15 K, m1 = 0.2776	0.9691	–	1170.8	0.8665
288.15 K, m1 = 0.4024	1.214	–	1182.6	1.016
288.15 K, m1 = 0.4555	1.267	–	1188.5	1.06
288.15 K, m1 = 0.6276	1.489	–	1203	1.408
288.15 K, m1 = 0.782	1.639	–	1221.6	1.556
288.15 K, m1 = 0.881	1.678	–	1225.4	1.575
288.15 K, m1 = 0.9116	1.69	–	1231.2	1.679
288.15 K, m1 = 1.004	1.744	–	1245.4	1.828
288.15 K, m1 = 1.259	1.772	–	1266.8	2.586
288.15 K, m1 = 1.492	1.746	–	1292.2	3.198
288.15 K, m1 = 1.71	1.738	–	1311.9	3.978
288.15 K, m1 = 1.875	1.698	–	1320.1	4.642
293.15 K, m1 = 0.0082	0.1341	–	1123.3	0.6014
293.15 K, m1 = 0.0545	0.3807	–	1129	0.6412
293.15 K, m1 = 0.0667	0.412	–	1130.5	0.6621
293.15 K, m1 = 0.1047	0.5415	–	1134.7	0.6872
293.15 K, m1 = 0.2776	1.021	–	1154.7	0.7989
293.15 K, m1 = 0.4024	1.277	–	1165.8	0.9313
293.15 K, m1 = 0.4555	1.341	–	1172.6	0.9778
293.15 K, m1 = 0.6276	1.584	–	1187.3	1.271
293.15 K, m1 = 0.782	1.752	–	1205.7	1.415
293.15 K, m1 = 0.881	1.797	–	1212	1.429
293.15 K, m1 = 0.9116	1.811	–	1215.2	1.517
293.15 K, m1 = 1.004	1.873	–	1229.3	1.65
293.15 K, m1 = 1.259	1.917	–	1250.2	2.306
293.15 K, m1 = 1.492	1.9	–	1275.7	2.833
293.15 K, m1 = 1.71	1.902	–	1295.5	3.5
293.15 K, m1 = 1.875	1.866	–	1304	4.058
298.15 K, m1 = 0.0082	0.1401	–	1108.5	0.5595
298.15 K, m1 = 0.0545	0.3953	–	1115.7	0.5957
298.15 K, m1 = 0.0667	0.4305	–	1113.6	0.6148
298.15 K, m1 = 0.1047	0.5657	–	1118.5	0.6361
298.15 K, m1 = 0.2776	1.073	–	1138.2	0.7381
298.15 K, m1 = 0.4024	1.343	–	1149	0.8609
298.15 K, m1 = 0.4555	1.416	–	1155.9	0.8966
298.15 K, m1 = 0.6276	1.68	–	1171.1	1.146
298.15 K, m1 = 0.782	1.866	–	1188.8	1.287
298.15 K, m1 = 0.881	1.918	–	1195.8	1.301
298.15 K, m1 = 0.9116	1.933	–	1198.8	1.369
298.15 K, m1 = 1.004	2.005	–	1212.9	1.491
298.15 K, m1 = 1.259	2.065	–	1232.2	2.078
298.15 K, m1 = 1.492	2.06	–	1259.5	2.541
298.15 K, m1 = 1.71	2.073	–	1279.9	3.094
298.15 K, m1 = 1.875	2.039	–	1288.1	3.556
300.6 K, m1 = 0.1047	–	798.24	–	–
300.7 K, m1 = 0.6276	–	850.07	–	–
300.8 K, m1 = 0.881	–	871.54	–	–
301.1 K, m1 = 1.492	–	934.05	–	–
